Measured values from patent US20210395650A1, “COMPOUNDS STABILIZING HYDROLASES IN LIQUIDS” (BASF SE, priority 2018, published 2021).

Molecular target: T1, Savinase® 16.0L (Lederbergia lenta, UniProt P29600)
T1 construct: purchased Sigma-Aldrich
T1 sequence (P29600 1-269): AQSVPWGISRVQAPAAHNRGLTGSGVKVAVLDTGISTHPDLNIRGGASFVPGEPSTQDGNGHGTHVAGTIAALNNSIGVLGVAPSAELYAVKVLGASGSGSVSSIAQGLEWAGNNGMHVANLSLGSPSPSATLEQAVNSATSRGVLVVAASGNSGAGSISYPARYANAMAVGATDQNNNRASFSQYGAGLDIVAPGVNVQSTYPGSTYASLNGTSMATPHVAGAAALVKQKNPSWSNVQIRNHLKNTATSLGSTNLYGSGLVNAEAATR
Experiment: Protease storage stability in liquid formulations at 37° C. (Suc-AAPF-pNA assay)
Assay type: biochemical
Settings: 0.7 wt% Savinase 16.0 L
Protocol: The storage stability of protease was assessed at 37° C.
Base test formulations were manufactured by making base formulations I to V by mixing the components according to Table 1.
Protease used: Savinase® 16.0L (CAS-No. 9014-01-1, EC-No. 232-752-2) was purchased from Sigma-Aldrich.
The respective component (a) or comparative compound was added, if applicable, to the respective base formulation in amounts as indicated in Table 1.
The amount of protease as provided in Table 1 refers to active protein.
Water was added to accomplish the balance to 100.
Savinase activity at certain points in time as indicated in Table 2 was be determined by employing Succinyl-Ala-Ala-Pro-Phe-p-nitroanilide (Suc-AAPF-pNA, short AAPF) as substrate. pNA is cleaved from the substrate molecule by proteolytic cleavage, resulting in release of yellow color of free pNA which was determined by measuring OD405. Measurements were done at 20° C.
The proteolytic activity values provided in Table 3 were calculated referring to the 100% value determined in the reference formulation at the time 0.
The nomenclature of formulations is as follows: the Roman number before the full stop characterizes the base formulation, the Arabian number the type of compound (A. # compound according to invention (component (a)); (B. #) comparative compound).

[1] = base formulation I, 2.5 wt% compound, 3 d
[2] = base formulation I, 2.5 wt% compound, 7 d
[3] = base formulation I, 2.5 wt% compound, 14 d
[4] = base formulation I, 2.5 wt% compound, 21 d
[5] = base formulation I, 2.5 wt% compound, 28 d
[6] = base formulation I, 2.5 wt% compound, 35 d
[7] = base formulation I, 2.5 wt% compound, T0
[8] = base formulation II, 2.5 wt% compound, 3 d
[9] = base formulation II, 2.5 wt% compound, 7 d
[10] = base formulation II, 2.5 wt% compound, 14 d
[11] = base formulation II, 2.5 wt% compound, 21 d
[12] = base formulation II, 2.5 wt% compound, 28 d
[13] = base formulation II, 2.5 wt% compound, 35 d
[14] = base formulation II, 2.5 wt% compound, T0
[15] = base formulation III, 2.0 wt% compound, 3 d
[16] = base formulation III, 2.0 wt% compound, 7 d
[17] = base formulation III, 2.0 wt% compound, 14 d
[18] = base formulation III, 2.0 wt% compound, 21 d
[19] = base formulation III, 2.0 wt% compound, 28 d
[20] = base formulation III, 2.0 wt% compound, 35 d
[21] = base formulation III, 2.0 wt% compound, T0
[22] = base formulation IV, 2.0 wt% compound, 3 d
[23] = base formulation IV, 2.0 wt% compound, 7 d
[24] = base formulation IV, 2.0 wt% compound, 14 d
[25] = base formulation IV, 2.0 wt% compound, 21 d
[26] = base formulation IV, 2.0 wt% compound, 28 d
[27] = base formulation IV, 2.0 wt% compound, 35 d
[28] = base formulation IV, 2.0 wt% compound, T0
[29] = base formulation V, 2.0 wt% compound, 3 d
[30] = base formulation V, 2.0 wt% compound, 7 d
[31] = base formulation V, 2.0 wt% compound, 14 d
[32] = base formulation V, 2.0 wt% compound, 21 d
[33] = base formulation V, 2.0 wt% compound, 28 d
[34] = base formulation V, 2.0 wt% compound, 35 d
[35] = base formulation V, 2.0 wt% compound, T0

Structure (SMILES)	protease activity in the course of time of storage at 37° C. [1]	protease activity in the course of time of storage at 37° C. [2]	protease activity in the course of time of storage at 37° C. [3]	protease activity in the course of time of storage at 37° C. [4]	protease activity in the course of time of storage at 37° C. [5]	protease activity in the course of time of storage at 37° C. [6]	protease activity in the course of time of storage at 37° C. [7]	protease activity in the course of time of storage at 37° C. [8]	protease activity in the course of time of storage at 37° C. [9]	protease activity in the course of time of storage at 37° C. [10]	protease activity in the course of time of storage at 37° C. [11]	protease activity in the course of time of storage at 37° C. [12]	protease activity in the course of time of storage at 37° C. [13]	protease activity in the course of time of storage at 37° C. [15]	protease activity in the course of time of storage at 37° C. [16]	protease activity in the course of time of storage at 37° C. [17]	protease activity in the course of time of storage at 37° C. [18]	protease activity in the course of time of storage at 37° C. [19]	protease activity in the course of time of storage at 37° C. [20]	protease activity in the course of time of storage at 37° C. [21]	other results
CCOC(=O)CC(O)(CC(=O)OCC)C(=O)OCC [A.1, Triethylcitrate]	96%	93%	89%	83%	79%	72%	100%	100%	96%	93%	89%	83%	78%	98%	94%	91%	87%	84%	81%	100%	protease activity in the course of time of storage at 37° C. [14]: 100%; protease activity in the course of time of storage at 37° C. [22]: 96%; protease activity in the course of time of storage at 37° C. [23]: 93%; protease activity in the course of time of storage at 37° C. [24]: 88%; protease activity in the course of time of storage at 37° C. [25]: 82%; protease activity in the course of time of storage at 37° C. [26]: 79%; protease activity in the course of time of storage at 37° C. [27]: 74%; protease activity in the course of time of storage at 37° C. [28]: 98%; protease activity in the course of time of storage at 37° C. [29]: 94%; protease activity in the course of time of storage at 37° C. [30]: 90%; protease activity in the course of time of storage at 37° C. [31]: 86%; protease activity in the course of time of storage at 37° C. [32]: 83%; protease activity in the course of time of storage at 37° C. [33]: 79%; protease activity in the course of time of storage at 37° C. [34]: 75%; protease activity in the course of time of storage at 37° C. [35]: 97%
CCCOC(=O)CC(O)(CC(=O)OCCC)C(=O)OCCC [A.2, Tripropylcitrate]	100%	94%	91%	85%	80%	76%	101%	–	–	–	–	–	–	100%	100%	96%	91%	88%	84%	102%	–
CCCCOC(=O)CC(O)(CC(=O)OCCCC)C(=O)OCCCC [A.3, Tributylcitrate]	–	–	–	–	–	–	–	–	–	–	–	–	–	–	–	–	–	–	–	–	protease activity in the course of time of storage at 37° C. [22]: 100%; protease activity in the course of time of storage at 37° C. [23]: 96%; protease activity in the course of time of storage at 37° C. [24]: 91%; protease activity in the course of time of storage at 37° C. [25]: 84%; protease activity in the course of time of storage at 37° C. [26]: 81%; protease activity in the course of time of storage at 37° C. [27]: 77%; protease activity in the course of time of storage at 37° C. [28]: 99%; protease activity in the course of time of storage at 37° C. [29]: 98%; protease activity in the course of time of storage at 37° C. [30]: 93%; protease activity in the course of time of storage at 37° C. [31]: 88%; protease activity in the course of time of storage at 37° C. [32]: 85%; protease activity in the course of time of storage at 37° C. [33]: 80%; protease activity in the course of time of storage at 37° C. [34]: 74%; protease activity in the course of time of storage at 37° C. [35]: 101%
CCCCOC(=O)CC(CC(=O)OCCCC)(OC(C)=O)C(=O)OCCCC [A.4, Acetyltributylcitrate]	100%	96%	92%	87%	83%	79%	–	–	–	–	–	–	–	–	–	–	–	–	–	–	–
CCOC(=O)CC(CC(=O)OCC)(OC(C)=O)C(=O)OCC [A.5, Acetyltriethylcitrate]	96%	94%	90%	85%	82%	78%	98%	101%	100%	94%	90%	85%	81%	97%	95%	91%	86%	81%	77%	99%	protease activity in the course of time of storage at 37° C. [14]: 102%
